Common to all, as to format: cell-based
The target in one experiment is human TLR9 (Homo sapiens (Human), UniProt Q9NR96). Briefly: TLR9 inhibition reporter assay (HEK-Blue, SEAP). To be noted: HEK-Blue cells overexpressing human TLR9, ODN2006 5 nM stimulation. In short, it runs like this: (§1)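 Cells are treated with compound over a 0.05 nM–50 μM final range for 30 min at room temperature before agonist addition: gardiquimod at 7.5 μM for TLR7, R848 at 15.9 μM for TLR8, ODN2006 at 5 nM for TLR9. SEAP is measured after 22 h at 37 °C.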

Another experiment addresses human TLR7 (Homo sapiens (Human), UniProt Q9NYK1). Kind of experiment: TLR7 inhibition reporter assay (HEK-Blue, SEAP). The settings on record: HEK-Blue cells overexpressing human TLR7, gardiquimod 7.5 μM stimulation. In short, it runs like this:
as §1

In a further experiment the target is human TLR8 (Homo sapiens (Human), UniProt Q9NR97). Kind of experiment: TLR8 inhibition reporter assay (HEK-Blue, SEAP). To be noted: HEK-Blue cells overexpressing human TLR8, R848 15.9 μM stimulation. In short, it runs like this: as §1

The values that follow come from patent US11420958B2, “Aryl and heteroaryl substituted indole compounds” (BRISTOL-MYERS SQUIBB COMPANY, priority 2017, dated 2022).

human TLR9, sequence (Q9NR96 26-1032): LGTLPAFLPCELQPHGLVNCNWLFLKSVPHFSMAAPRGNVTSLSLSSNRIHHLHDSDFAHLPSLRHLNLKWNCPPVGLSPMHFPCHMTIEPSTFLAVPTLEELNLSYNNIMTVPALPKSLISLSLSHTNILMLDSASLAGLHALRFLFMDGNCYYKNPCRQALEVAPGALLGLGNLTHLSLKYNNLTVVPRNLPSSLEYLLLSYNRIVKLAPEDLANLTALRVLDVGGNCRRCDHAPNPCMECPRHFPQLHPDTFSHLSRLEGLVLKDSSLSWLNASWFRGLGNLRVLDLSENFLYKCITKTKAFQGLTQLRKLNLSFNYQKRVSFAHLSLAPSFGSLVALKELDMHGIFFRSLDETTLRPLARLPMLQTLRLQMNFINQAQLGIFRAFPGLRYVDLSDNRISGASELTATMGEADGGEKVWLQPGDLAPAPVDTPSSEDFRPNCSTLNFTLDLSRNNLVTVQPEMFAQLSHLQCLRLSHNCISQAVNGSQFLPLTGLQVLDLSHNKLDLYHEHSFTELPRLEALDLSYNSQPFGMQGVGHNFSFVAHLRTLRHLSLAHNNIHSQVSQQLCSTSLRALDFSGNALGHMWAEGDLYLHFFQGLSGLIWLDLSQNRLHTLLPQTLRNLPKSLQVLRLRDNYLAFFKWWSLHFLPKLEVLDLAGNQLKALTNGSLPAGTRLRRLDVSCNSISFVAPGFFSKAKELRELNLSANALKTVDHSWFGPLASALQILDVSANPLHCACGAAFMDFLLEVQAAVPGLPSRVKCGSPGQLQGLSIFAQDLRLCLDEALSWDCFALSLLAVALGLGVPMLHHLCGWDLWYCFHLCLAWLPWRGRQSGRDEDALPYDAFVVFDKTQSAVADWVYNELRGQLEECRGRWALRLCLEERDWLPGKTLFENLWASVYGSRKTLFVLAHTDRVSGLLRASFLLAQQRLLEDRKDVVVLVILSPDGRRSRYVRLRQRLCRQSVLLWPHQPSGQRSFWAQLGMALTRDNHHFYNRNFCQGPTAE
human TLR8, sequence (Q9NR97 27-1041): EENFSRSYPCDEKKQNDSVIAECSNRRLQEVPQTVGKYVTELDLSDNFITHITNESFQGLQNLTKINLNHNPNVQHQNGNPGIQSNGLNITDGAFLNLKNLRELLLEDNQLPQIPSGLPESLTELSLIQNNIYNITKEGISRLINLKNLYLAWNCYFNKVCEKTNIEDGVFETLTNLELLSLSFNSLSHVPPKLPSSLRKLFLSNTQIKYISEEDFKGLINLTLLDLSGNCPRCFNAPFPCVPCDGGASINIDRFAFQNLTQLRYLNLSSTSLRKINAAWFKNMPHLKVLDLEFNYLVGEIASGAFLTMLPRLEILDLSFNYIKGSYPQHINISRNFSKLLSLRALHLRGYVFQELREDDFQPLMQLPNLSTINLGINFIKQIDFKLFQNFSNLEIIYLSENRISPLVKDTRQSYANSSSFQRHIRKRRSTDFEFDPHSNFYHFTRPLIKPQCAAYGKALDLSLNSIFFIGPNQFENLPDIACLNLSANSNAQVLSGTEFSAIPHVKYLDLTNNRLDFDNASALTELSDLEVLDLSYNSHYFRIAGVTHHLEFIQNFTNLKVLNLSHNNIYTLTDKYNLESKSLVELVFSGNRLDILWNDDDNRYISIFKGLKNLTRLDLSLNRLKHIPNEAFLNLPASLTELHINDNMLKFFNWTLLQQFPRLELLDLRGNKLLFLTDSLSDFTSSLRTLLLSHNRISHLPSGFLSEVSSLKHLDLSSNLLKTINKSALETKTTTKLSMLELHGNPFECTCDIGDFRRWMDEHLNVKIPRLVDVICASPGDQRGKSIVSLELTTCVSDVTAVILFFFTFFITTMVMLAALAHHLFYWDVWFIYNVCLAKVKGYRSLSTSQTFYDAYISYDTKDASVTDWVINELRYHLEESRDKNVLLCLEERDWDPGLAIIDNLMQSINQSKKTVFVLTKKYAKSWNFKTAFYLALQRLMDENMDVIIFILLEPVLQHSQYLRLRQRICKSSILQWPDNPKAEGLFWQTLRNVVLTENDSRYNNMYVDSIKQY
human TLR7, sequence (Q9NYK1 27-1049): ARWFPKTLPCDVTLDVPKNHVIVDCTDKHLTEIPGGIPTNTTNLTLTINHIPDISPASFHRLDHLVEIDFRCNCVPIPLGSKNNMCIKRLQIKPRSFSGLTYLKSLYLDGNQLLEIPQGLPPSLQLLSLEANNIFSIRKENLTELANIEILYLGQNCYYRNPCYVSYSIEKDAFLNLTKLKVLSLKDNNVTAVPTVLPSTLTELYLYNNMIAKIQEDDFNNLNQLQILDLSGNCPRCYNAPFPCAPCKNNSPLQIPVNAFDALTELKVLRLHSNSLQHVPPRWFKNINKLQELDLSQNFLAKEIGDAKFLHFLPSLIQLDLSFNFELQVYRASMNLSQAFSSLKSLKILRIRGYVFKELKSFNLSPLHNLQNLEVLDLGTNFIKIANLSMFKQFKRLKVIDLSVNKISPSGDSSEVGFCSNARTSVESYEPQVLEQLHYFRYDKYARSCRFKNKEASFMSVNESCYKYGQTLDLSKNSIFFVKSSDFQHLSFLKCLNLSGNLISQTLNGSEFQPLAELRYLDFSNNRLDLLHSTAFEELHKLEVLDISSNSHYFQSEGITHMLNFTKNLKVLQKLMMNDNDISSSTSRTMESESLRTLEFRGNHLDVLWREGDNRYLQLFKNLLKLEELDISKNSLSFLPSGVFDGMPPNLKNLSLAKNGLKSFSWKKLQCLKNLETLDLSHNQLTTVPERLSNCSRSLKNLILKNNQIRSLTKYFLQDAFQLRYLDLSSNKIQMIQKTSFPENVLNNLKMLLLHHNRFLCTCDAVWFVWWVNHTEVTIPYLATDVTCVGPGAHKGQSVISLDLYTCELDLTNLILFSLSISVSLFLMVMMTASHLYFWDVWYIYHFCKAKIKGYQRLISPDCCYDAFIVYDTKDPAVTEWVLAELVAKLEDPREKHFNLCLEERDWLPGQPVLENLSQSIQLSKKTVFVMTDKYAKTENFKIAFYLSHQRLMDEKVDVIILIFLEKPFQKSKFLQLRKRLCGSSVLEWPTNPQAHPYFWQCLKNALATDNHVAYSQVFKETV

As for `CCc1c(-c2ccc(OC)c(OC)c2)[nH]c2ccc(-c3noc(CCN(C)C)n3)cc12` [Example 454, 2-(3-(2-(3,4-dimethoxyphenyl)-3-ethyl-1H-indol-5-yl)-1,2,4-oxadiazol-5-yl)-N,N-dimethylethan-1-amine], the figures for the IC50 on human TLR9, on human TLR7 and on human TLR8 were 11300 nM, 306 nM and 19 nM, respectively.

For the molecule `CCc1c(-c2ccnc(C)c2)[nH]c2ccc(-c3noc([C@H]4CCNC4)n3)cc12` [Example 455, (S)-3-(3-ethyl-2-(2-methylpyridin-4-yl)-1H-indol-5-yl)-5-(pyrrolidin-3-yl)-1,2,4-oxadiazole], the IC50 came out at 15900 nM at human TLR9, 2220 nM against human TLR7 and 27 nM against human TLR8.

Consider `CCc1c(-c2ccnc(C)c2)[nH]c2ccc(-c3noc(C4CCNC4)n3)cc12` (stereo not drawn) [Example 456, 3-(3-ethyl-2-(2-methylpyridin-4-yl)-1H-indol-5-yl)-5-(pyrrolidin-3-yl)-1,2,4-oxadiazole], for which the figures for the IC50 at human TLR9, against human TLR7 and on human TLR8 were 593 nM, 78 nM and 18 nM, respectively.

As for `CCc1c(-c2ccnc(C)c2)[nH]c2ccc(-c3noc(C4CCCNC4)n3)cc12` (stereo not drawn) [Example 457, 3-(3-ethyl-2-(2-methylpyridin-4-yl)-1H-indol-5-yl)-5-(piperidin-3-yl)-1,2,4-oxadiazole], the IC50 on human TLR9 is 686 nM; at human TLR7, 228 nM; against human TLR8 it was 11 nM.

Take `CCc1c(-c2ccnc(C)c2)[nH]c2ccc(-c3noc(C4CNC4)n3)cc12` [Example 458, 5-(azetidin-3-yl)-3-(3-ethyl-2-(2-methylpyridin-4-yl)-1H-indol-5-yl)-1,2,4-oxadiazole]: the figures for the IC50 on human TLR9, against human TLR7 and against human TLR8 were 1050 nM, 163 nM and 37 nM, respectively.

For the molecule `CCc1c(-c2ccc(OC)c(OC)c2)[nH]c2ccc(-c3noc(C4CCNCC4)n3)cc12` [Example 459, 3-(2-(3,4-dimethoxyphenyl)-3-ethyl-1H-indol-5-yl)-5-(piperidin-4-yl)-1,2,4-oxadiazole], the figures for the IC50 against human TLR9, against human TLR7 and against human TLR8 were 2180 nM, 306 nM and 19 nM, respectively.

As for `CCc1c(-c2ccc(OC)c(OC)c2)[nH]c2ccc(-c3noc(CCNC)n3)cc12` [Example 460, 2-(3-(2-(3,4-dimethoxyphenyl)-3-ethyl-1H-indol-5-yl)-1,2,4-oxadiazol-5-yl)-N-methylethan-1-amine], the concentration for half-maximal inhibition (IC50) against human TLR9 is 2680 nM; on human TLR7 it was 539 nM; on human TLR8, 7.3 nM.

Consider `CCc1c(-c2ccnc(C)c2)[nH]c2ccc(-c3noc(C4CC5(CCNCC5)C4)n3)cc12` [Example 461, 3-(3-ethyl-2-(2-methylpyridin-4-yl)-1H-indol-5-yl)-5-(7-azaspiro[3.5]nonan-2-yl)-1,2,4-oxadiazole], for which the IC50 on human TLR9 was found to be 1540 nM; on human TLR7 it was 321 nM; against human TLR8 it was 72 nM.

On to `CC(C)c1c(-c2ccnc3[nH]ncc23)[nH]c2ccc(-c3noc([C@@H]4CCCNC4)n3)cc12` [Example 462, (R)-3-(3-isopropyl-2-(1H-pyrazolo[3,4-b]pyridin-4-yl)-1H-indol-5-yl)-5-(piperidin-3-yl)-1,2,4-oxadiazole], for which the IC50 on human TLR9 stood at 1900 nM; at human TLR7, 156 nM; at human TLR8, 4.1 nM.

For `CCc1c(-c2ccc(OC)c(OC)c2)[nH]c2ccc(-c3noc([C@@H](N)CCCN)n3)cc12` [Example 463, (S)-1-(3-(2-(3,4-dimethoxyphenyl)-3-ethyl-1H-indol-5-yl)-1,2,4-oxadiazol-5-yl)butane-1,4-diamine], the concentration for half-maximal inhibition (IC50) against human TLR9 stood at 7150 nM; against human TLR7, 772 nM; on human TLR8, 126 nM.

Take `CCc1c(-c2ccc(OC)c(OC)c2)[nH]c2ccc(-c3noc([C@@H](N)CCCCN)n3)cc12` [Example 464, (S)-1-(3-(2-(3,4-dimethoxyphenyl)-3-ethyl-1H-indol-5-yl)-1,2,4-oxadiazol-5-yl)pentane-1,5-diamine]: the 50% inhibitory concentration (IC50) against human TLR9 stood at 2730 nM; against human TLR7, 1650 nM; at human TLR8, 183 nM.

Turning to `COc1ccc(-c2[nH]c3ccc(-c4cc[nH]c4)cc3c2C(C)C)cc1OC` [Example 465, 2-(3,4-dimethoxyphenyl)-3-isopropyl-5-(1H-pyrrol-3-yl)-1H-indole], the figures for the IC50 against human TLR9, on human TLR7 and against human TLR8 were 33000 nM, 305 nM and 81 nM, respectively.

For `CCc1c(-c2ccc(OC)c(OC)c2)[nH]c2ccc(-c3cccnc3)cc12` [Example 466, 2-(3,4-dimethoxyphenyl)-3-ethyl-5-(pyridin-3-yl)-1H-indole], the IC50 is above 50000 nM at human TLR9, 3880 nM against human TLR7 and 368 nM against human TLR8.

In the case of `CC(C)c1c(-c2ccnc3[nH]ncc23)[nH]c2ccc(-c3cccnc3)cc12` [Example 467, 4-(3-isopropyl-5-(pyridin-3-yl)-1H-indol-2-yl)-1H-pyrazolo[3,4-b]pyridine], the IC50 at human TLR9 came out at 24200 nM; against human TLR7, 208 nM; against human TLR8, 18 nM.

Turning to `CC(C)c1c(-c2ccnc3[nH]ncc23)[nH]c2ccc(-c3ccc4nccnc4c3)cc12` [Example 468, 6-(3-isopropyl-2-(1H-pyrazolo[3,4-b]pyridin-4-yl)-1H-indol-5-yl)quinoxaline], the IC50 stood at 47300 nM on human TLR9, 450 nM against human TLR7 and 35 nM on human TLR8.

Consider `CC(C)c1c(-c2ccnc3[nH]ncc23)[nH]c2ccc(-c3ccc4ncccc4c3)cc12` [Example 469, 6-(3-isopropyl-2-(1H-pyrazolo[3,4-b]pyridin-4-yl)-1H-indol-5-yl)quinoline], for which the IC50 against human TLR9 was above 50000 nM; against human TLR7, 606 nM; on human TLR8, 129 nM.

In the case of `CC(C)c1c(-c2ccnc3[nH]ncc23)[nH]c2ccc(-c3cccc4cnccc34)cc12` [Example 470, 5-(3-isopropyl-2-(1H-pyrazolo[3,4-b]pyridin-4-yl)-1H-indol-5-yl)isoquinoline], the values for the IC50 against human TLR9, against human TLR7 and at human TLR8 were above 50000 nM, 2590 nM and 56 nM, respectively.

In the case of `CCc1c(-c2ccc(OC)c(OC)c2)[nH]c2ccc(-c3ccncc3)cc12` [Example 471, 2-(3,4-dimethoxyphenyl)-3-ethyl-5-(pyridin-4-yl)-1H-indole], the results for the IC50 on human TLR9, against human TLR7 and at human TLR8 were 42300 nM, 2180 nM and 238 nM, respectively.

In the case of `COc1ccc(-c2[nH]c3ccc(-c4nnc([C@H]5CCCNC5)o4)cc3c2CC(F)(F)F)cc1OC` [compound 57], the IC50 against human TLR9 turned out to be 1470 nM; on human TLR7 it was 31 nM; on human TLR8 it was 10 nM.
